# Assay results taken from PubChem BioAssay AID2202558 (NIEHS Division of Translational Toxicology (DTT)).
# Records with an inconclusive call do not appear. Calls of active or inactive are those of the source. How the calls were made is not given here.
# Test system: mouse/rat in vivo micronucleus assay, summary call
# Assay: In vivo micronucleus assay summary data
# Source text: The erythrocyte micronucleus test examines the ability of substances to cause chromosome damage in developing red blood cells inside bone marrow. A micronucleus (literally, "little nucleus") is a biomarker of structural chromosome damage (e.g., breaks) and changes in chromosome number (e.g., chromosome loss). If a chromosome is broken or fails to migrate properly with other chromosomes during cell division, the broken piece or lost chromosome will form a small (micro) nucleus of its own in one of the two daughter cells produced. Detection of chromosomal damage is important because it has been linked to birth defects, infertility, and certain diseases, including cancer.
# The micronucleus test is performed in rapidly dividing cell populations, and bone marrow is a site of rapid blood cell division. Both bone marrow and peripheral blood samples can be examined for the presence of micronuclei in red blood cells.
# Animals are treated with a test substance once or daily over a period of time, and the frequency of micronucleated cells is determined 24-48 hours after the final treatment, depending on the source of the cells (bone marrow or blood) that are examined and the treatment regimen.
# The test subjects are rodents (rats or mice) that are exposed to the test substance, usually by oral gavage or injection. Typically, one to three daily treatments of the test substance are administered over a range of doses; the highest dose tested is near the maximum tolerated dose. Groups of negative and positive control animals are included for each test. Bone marrow samples are obtained from all animals 24 hours after the last treatment, and red blood cells are examined for the presence of micronuclei.
# B. Peripheral Blood Tests
# Micronucleus tests are performed on male and female rodents that are exposed to the test substance orally, dermally, or by inhalation in subchronic (e.g., 28 or 90 days) or short term (e.g., 48-72 hours) toxicity studies. 24 to 48 hours after the final exposure, peripheral blood samples are obtained and red blood cells are examined for the presence of micronuclei. Samples may be examined using standard slide scoring procedures or automated flow cytometric approaches. Since 2007, NTP has routinely relied on flow cytometry to evaluate the frequency of micronucleated cells in peripheral blood.
# Peripheral blood micronucleus assays are typically integrated into all NTP toxicity studies, and they also lend themselves to serial monitoring of micronucleus frequencies over time, since blood samples can be obtained without the need to sacrifice the animals.
# Blood or bone marrow samples from treated animals are compared to samples from untreated animals. With the slide-based approach for data acquisition, 1000-2000 cells were scored per animal. Using flow cytometric procedures to evaluate blood samples, 20,000 immature red blood cells and around one million mature red blood cells are examined per animal, resulting in a marked increase in the ability to detect small changes in the frequency of micronucleated red blood cells. The data is analyzed using statistical methods to determine if there is a significant increase in the frequency of cells containing micronuclei. Both dose-related responses and the magnitude of response for each independent dose group are considered during the evaluation of the data. For a positive test, both a significant dose response (trend) and at least one significant dose group are required. If only one of these measures is present, the test is determined to be questionable. The absence of either condition results in a negative test. The final conclusions for micronucleus tests are determined by considering the results of statistical analyses, reproducibility of any observed effects, and the magnitude of the effects. Ultimately, both the biological significance as well as statistical significance is considered when reaching a final conclusion.
# […]
row,SMILES,outcome
1,O=C1c2ccccc2C(=O)c2ccccc21,active; positive
2,CO[C@@]12[C@H](COC(N)=O)C3=C(C(=O)C(C)=C(N)C3=O)N1C[C@@H]1N[C@@H]12,active; positive
3,C=C(C)c1ccccc1,active; positive
4,Brc1c(Br)c(Br)c(Oc2c(Br)c(Br)c(Br)c(Br)c2Br)c(Br)c1Br,active
5,ClC(Cl)Cl,active; positive
6,CC1C(=O)C[C@]2(C(C)C)C[C@H]12 (stereo not given in full),active; positive
7,CC(=O)CC(C)=O,active; positive
8,Nc1ccccc1,active; positive
9,COc1ccc2nc(N)sc2c1,active; positive
10,Nc1ncn([C@@H]2O[C@H](CO)[C@@H](O)[C@H]2O)c(=O)n1,active; positive
11,C=CCc1cc(OC)c2c(c1)OCO2,active; negative
12,COc1cccc2c1C(=O)c1c(O)c3c(c(O)c1C2=O)C[C@@](O)(C(=O)CO)C[C@@H]3O[C@H]1C[C@H](N)[C@H](O)[C@H](C)O1,active; positive
13,Cc1ccccc1N,active; negative
14,OC(O)C(Cl)(Cl)Cl,active; positive
15,C=CC(=O)CC,inactive; negative
16,FC(F)(F)c1ccc(Cl)cc1,active; positive
17,CC(C)=CCl,active; positive
18,O=C1c2cccc(O)c2C(=O)c2c(O)cccc21,inactive; negative
19,[O-][Br+2]([O-])O,active; positive
20,Cc1cn([C@H]2C=C[C@@H](CO)O2)c(=O)[nH]c1=O,active; positive
21,CC=Cc1ccc(O)c(OC)c1,active; positive
22,Nc1ccc(Oc2ccc(N)cc2)cc1,active; positive
23,Cc1cccc([N+](=O)[O-])c1,inactive; negative
24,Cc1cnc[nH]1,inactive; negative
25,Nc1cc([N+](=O)[O-])ccc1O,inactive; negative

row,SMILES,outcome
1,C[N+](C)(C)Cc1ccccc1,active; positive
2,CCCC=NO,active; positive
3,CC#N,active; positive
4,CCN(N=O)C(N)=O,active; positive
5,Cc1ncc[nH]1,active; positive
6,CS(=O)(=O)OC[C@H](O)[C@@H](O)COS(C)(=O)=O,active; positive
7,CC(C)(C)c1ccc(O)c(O)c1,inactive; negative
8,O=S(=O)(c1ccc(Cl)cc1)c1ccc(Cl)cc1,active; positive
9,c12c3c4c5c1c1c6c7c2c2c8c3c3c9c4c4c%10c5c5c1c1c6c6c%11c7c2c2c7c8c3c3c8c9c4c4c9c%10c5c5c1c1c6c6c%11c2c2c7c3c3c8c4c4c9c5c1c1c6c2c3c41,inactive; negative
10,O=C1O[C@H]([C@@H](O)CO)C(O)=C1O,active; positive
11,O=C(O)c1cc(N=Nc2ccc(S(=O)(=O)Nc3ccccn3)cc2)ccc1O,active; positive
12,Cc1ccc([N+](=O)[O-])cc1,inactive; negative
13,O=NO,inactive; negative
14,CC1=CC(=O)NS(=O)(=O)O1,active; positive
15,CN(C)c1ccc(C(=C2C=CC(=[N+](C)C)C=C2)c2ccccc2)cc1,inactive; negative
16,CC(C)(C)O,inactive; negative
17,Cc1cn([C@H]2C[C@H](N=[N+]=[N-])[C@@H](CO)O2)c(=O)[nH]c1=O,active; positive
18,CC(C)CON=O,active; positive
19,BrCCBr,active; positive
20,C1CN1c1nc(N2CC2)nc(N2CC2)n1,active; positive
21,CC/C(=C(/CC)c1ccc(O)cc1)c1ccc(O)cc1,active; positive
22,CC(O)COC(C)(C)C (stereo not given),active; weakly positive
23,ClCC(Cl)(Cl)Cl,active; positive
24,C(=NC1CCCCC1)=NC1CCCCC1,active; weakly positive
25,O=C(O)C(Cl)Cl,active; positive
